Laboratory results as given in patent publication US7135466B2 (Kirin Beer Kabushiki Kaisha, priority 1999, dated 2006).
Where two headings read alike, the source gives them in different places.

Tests used:
PDGF-Ra = biological target: T1, PDGF-Ra (Homo sapiens, UniProt P16234); experiment: Inhibitory activity against PDGF-Ra phosphorylation by PDGF-AA stimulation using G292; format: cell-based; conditions: for IC50: > means inhibition at indicated concentration not more than 50%, < and << not less than 50%, read-out: PDGF (E) IC50; for inhibition at 0.1 µM: G292, at 100 nM, read-out: PDGF (E) inhibition (%) at 100 nM
T1 construct: host or cells: G-292 human osteosarcoma cells
T1 sequence (P16234 24-1089): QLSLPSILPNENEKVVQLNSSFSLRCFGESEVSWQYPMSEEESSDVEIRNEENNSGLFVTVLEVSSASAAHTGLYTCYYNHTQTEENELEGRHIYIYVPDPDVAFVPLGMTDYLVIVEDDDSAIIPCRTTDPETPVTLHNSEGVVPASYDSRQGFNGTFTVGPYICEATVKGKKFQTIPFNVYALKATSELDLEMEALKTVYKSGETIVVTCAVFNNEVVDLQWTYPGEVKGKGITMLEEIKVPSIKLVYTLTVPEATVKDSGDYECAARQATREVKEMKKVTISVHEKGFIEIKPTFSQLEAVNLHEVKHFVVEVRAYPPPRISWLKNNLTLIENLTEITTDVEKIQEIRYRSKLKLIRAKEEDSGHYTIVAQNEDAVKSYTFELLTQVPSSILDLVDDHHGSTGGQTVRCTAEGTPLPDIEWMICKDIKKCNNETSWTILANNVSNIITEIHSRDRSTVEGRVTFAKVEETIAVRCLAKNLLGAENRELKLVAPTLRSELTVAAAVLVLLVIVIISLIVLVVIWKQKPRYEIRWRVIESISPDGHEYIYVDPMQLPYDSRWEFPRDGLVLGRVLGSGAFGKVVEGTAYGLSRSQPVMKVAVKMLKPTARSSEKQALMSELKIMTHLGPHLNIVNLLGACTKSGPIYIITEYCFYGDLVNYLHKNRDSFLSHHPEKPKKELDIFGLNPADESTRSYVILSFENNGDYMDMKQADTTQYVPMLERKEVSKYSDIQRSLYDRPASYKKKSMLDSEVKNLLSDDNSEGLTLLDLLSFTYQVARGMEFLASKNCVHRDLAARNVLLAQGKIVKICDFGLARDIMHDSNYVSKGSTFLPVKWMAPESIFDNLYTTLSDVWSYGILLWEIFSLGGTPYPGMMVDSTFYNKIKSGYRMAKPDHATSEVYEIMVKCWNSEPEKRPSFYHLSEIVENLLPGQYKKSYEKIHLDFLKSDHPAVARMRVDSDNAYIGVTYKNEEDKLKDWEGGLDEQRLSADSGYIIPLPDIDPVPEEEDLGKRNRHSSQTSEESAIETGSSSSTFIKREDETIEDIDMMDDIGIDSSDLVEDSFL
Procedure, shortened: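 Human osteosarcoma G-292, 0.1% FBS o/n; cpd (DMSO) 1 h 37 °C; PDGF-AA 50 ng/ml 5 min; lyse 20 min RT; PY-20 capture 4 °C o/n; anti-PDGF-Ra + HRP-GAR; OD450.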

c-kit = biological target: T2, c-kit (Homo sapiens, UniProt P10721); experiment: Inhibitory activity against c-kit autophosphorylation (MO7e cells, h-SCF); format: cell-based; conditions: for IC50: MO7e cells, read-out: c-kit IC50; for inhibition at 1 µM: Mo7e, at 1000 nM
T2 construct: MO7e (human megakaryocytic leukemia cell line) which had been arrested for 20 hr; endogenous in cells; host or cells: MO7e human megakaryocytic leukemia cell line
T2 sequence (P10721 26-976): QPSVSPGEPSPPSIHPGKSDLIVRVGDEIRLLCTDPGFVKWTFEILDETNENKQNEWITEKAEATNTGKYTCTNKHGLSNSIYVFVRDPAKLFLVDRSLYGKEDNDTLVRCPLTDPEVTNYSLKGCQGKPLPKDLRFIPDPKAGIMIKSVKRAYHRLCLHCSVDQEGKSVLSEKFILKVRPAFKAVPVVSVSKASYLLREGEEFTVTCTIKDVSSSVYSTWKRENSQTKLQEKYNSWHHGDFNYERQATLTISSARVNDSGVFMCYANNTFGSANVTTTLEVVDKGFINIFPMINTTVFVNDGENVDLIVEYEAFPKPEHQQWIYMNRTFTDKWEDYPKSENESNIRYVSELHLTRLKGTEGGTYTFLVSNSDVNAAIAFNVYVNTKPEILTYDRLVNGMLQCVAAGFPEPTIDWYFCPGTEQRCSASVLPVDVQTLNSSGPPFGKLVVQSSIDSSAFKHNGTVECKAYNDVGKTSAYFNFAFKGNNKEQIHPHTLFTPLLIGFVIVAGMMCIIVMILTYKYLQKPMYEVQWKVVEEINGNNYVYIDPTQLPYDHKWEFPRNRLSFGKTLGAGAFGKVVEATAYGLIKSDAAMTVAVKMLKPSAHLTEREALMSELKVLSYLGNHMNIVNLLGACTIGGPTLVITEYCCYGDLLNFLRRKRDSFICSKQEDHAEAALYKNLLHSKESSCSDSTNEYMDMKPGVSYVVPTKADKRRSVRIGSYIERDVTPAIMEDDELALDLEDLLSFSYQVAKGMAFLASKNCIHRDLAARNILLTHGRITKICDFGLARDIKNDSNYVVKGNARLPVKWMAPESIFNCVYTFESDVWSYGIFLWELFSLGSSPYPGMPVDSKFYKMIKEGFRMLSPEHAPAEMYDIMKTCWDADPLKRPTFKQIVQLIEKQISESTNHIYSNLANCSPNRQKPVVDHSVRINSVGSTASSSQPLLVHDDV
Procedure, shortened: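 MO7e cells, arrested for 20 hr, were pretreated with test compound in DMSO for 1 hr and then stimulated with 50 ng/ml h-SCF for 5 min before lysis. Lysates were captured on immobilized anti-phosphotyrosine PY-20, probed with anti-c-kit antibody and HRP anti-rabbit IgG, and read colorimetrically at 450 nm.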

[1] = figure within parentheses in −( ) or >1000( )
[2] = figure within parentheses in >100( )
[3] = figure in parentheses in >100( )

CCN(CCNC(=S)Nc1cc(C)c(Oc2ccnc3cc(OC)c(OC)cc23)cc1C)c1ccccc1C [Example 540, N-{4-[(6,7-Dimethoxy-4-quinolyl)oxy]-2,5-dimethylphenyl}-N′-{2-[N-ethyl-N-(o-tolyl)amino]-ethyl}thiourea]
IC50 (PDGF-Ra): 48 nM
IC50 (c-kit; 50 ng/ml h-SCF): 447 nM

COc1cc2ncnc(Oc3ccc(NC(=O)NC4CCN(CC5CCCCC5)C4)c([N+](=O)[O-])c3)c2cc1OC (stereo not drawn) [Example 587, N-[1-(Cyclohexylmethyl)tetrahydro-1H-3-pyrrolyl]-N′-{4-[(6,7-dimethoxy-4-quinazolinyl)oxy]-2-nitrophenyl}urea]
IC50 (PDGF-Ra): 67 nM
inhibition at 1 µM (c-kit; [1]): 16%

COc1cc2nccc(Oc3ccc(NCCOc4c(C)cccc4C)cc3C)c2cc1OC [Example 881, N-{4-[(6,7-Dimethoxy-4-quinolyl)oxy]-3-methylphenyl}-N-[2-(2,6dimethylphenoxy)ethyl]amine]
IC50 (PDGF-Ra): > 30 nM
PDGF (E) inhibition (%), figure in parentheses in >30( ) (PDGF-Ra; figure in parentheses in >30( ), concentration not defined in key (presumably 30 nM)): 29%
IC50 (c-kit; h-SCF stimulation): 346 nM

COc1cc2ncnc(Oc3ccc(NC(=O)N[C@@H]4CCN(Cc5ccccc5)C4)c(Cl)c3)c2cc1OC [Example 575, N-[(3R)-1-Benzyltetrahydro-1H-3-pyrrolyl]-N′-{2-chloro-4-[(6,7-dimethoxy-4-quinazolinyl)oxy]phenyl}urea]
IC50 (PDGF-Ra): 27 nM
IC50 (c-kit; 50 ng/ml h-SCF): 664 nM

1-(3-Chlorophenyl)ethyl N-{4-((6,7-dimethoxy-4-quinazolinyl)oxy)phenyl}carbamate [Example 3]
IC50 (PDGF-Ra; Pharmacological Test Example 1): < 10 nM
IC50 (c-kit; h-SCF 50 ng/ml): 173 nM

COc1cc2ncnc(Oc3ccc(NC(=O)N[C@@H]4CCN(Cc5ccccc5)C4)cc3)c2cc1OC [Example 566, N-[(3R)-1-Benzyltetrahydro-1H-3-pyrrolyl]-N′-{4-[(6,7-dimethoxy-4-quinazolinyl)oxy]phenyl}urea]
IC50 (PDGF-Ra): 17 nM
IC50 (c-kit; 50 ng/ml h-SCF): 276 nM

COc1cc2nccc(Oc3cc(C)c(NC(=O)OC4CCc5ccccc5C4)cc3C)c2cc1OC (stereo not drawn) [Example 292, 1,2,3,4-Tetrahydro-2-naphthalenyl N-{4-[(6,7-dimethoxy-4-quinolyl)oxy]-2,5-dimethylphenyl}carbamate]
IC50 (PDGF-Ra; Pharmacological Test Example 1): 14 nM
IC50 (c-kit; h-SCF 50 ng/ml): 262 nM

CCCC(CCC)OC(=O)Nc1ccc(Oc2ncnc3cc(OC)c(OC)cc23)cc1 [Example 400, 1-Propylbutyl N-{4-[(6,7-dimethoxy-4-quinazolinyl)oxy]phenyl}carbamate]
IC50 (PDGF-Ra): < 10 nM
IC50 (c-kit; 50 ng/ml h-SCF): 671 nM

COc1cc2ncnc(Oc3ccc(NC(=O)OC(C)c4ccccc4Cl)cc3)c2cc1OC (stereo not drawn) [Example 15, 1-(2-Chlorophenyl)ethyl N-{4-[(6,7-dimethoxy-4-quinazolinyl)oxy]phenyl}carbamate]
IC50 (PDGF-Ra; Pharmacological Test Example 1): 21 nM
inhibition at 1 µM (c-kit; figure in parentheses in −( )): 48%

COc1cc2nccc(Oc3ccc(NC(=S)NC(=O)c4cc(Cl)cc(Cl)c4)cc3)c2cc1OC [Example 1009, N-(3,5-Dichlorobenzoyl)-N′-{4-[(6,7-dimethoxy-4-quinolyl)oxy]phenyl}thiourea]
IC50 (PDGF-Ra): 21 nM
IC50 (c-kit; h-SCF stimulation): 243 nM

COc1cc2ncnc(Oc3ccc(NC(=O)OCCCSc4ccc(Cl)cc4C)cc3)c2cc1OC [Example 80]
IC50 (PDGF-Ra; Pharmacological Test Example 1): 12 nM
IC50 (c-kit; h-SCF 50 ng/ml): 137 nM

COc1cc2ncnc(Oc3ccc(OCC(=O)N4CCC(N5CCCCC5)CC4)cc3)c2cc1OC [Example 805, 2-{4-[(6,7-Dimethoxy-4-quinazolinyl)oxy]phenoxy}-1-(4-piperidinopiperidino)-1-ethanone]
IC50 (PDGF-Ra): > 100 nM
inhibition at 0.1 µM (PDGF-Ra; [2]): 14%
inhibition at 1 µM (c-kit; [1]): 35%

COc1cc2nccc(Oc3ccc(NC(=S)NC(=O)C(C)Oc4ccccc4Cl)cc3)c2cc1OC (stereo not drawn) [Example 763, N-[2-(2-Chlorophenoxy)propanoyl]-N′-{4-[(6,7-dimethoxy-4-quinolyl)oxy]phenyl}thiourea]
IC50 (PDGF-Ra): 13 nM
inhibition at 1 µM (c-kit; [1]): 39%

CCCCCCCCCCCCCCCCCCOC(=O)Nc1cc(C)c(Oc2ccnc3cc(OC)c(OC)cc23)cc1C [Example 327, Octadecyl N-{4-[(6,7-dimethoxy-4-quinolyl)oxy]-2,5-dimethylphenyl}carbamate]
inhibition at 0.1 µM (PDGF-Ra; [3]): 30%
IC50 (PDGF-Ra; Pharmacological Test Example 1): > 100 nM
inhibition at 1 µM (c-kit; figure in parentheses in −( )): 6%

COc1cc2ncnc(Oc3ccc(NC(=O)OCCCc4ccccc4)c(Cl)c3)c2cc1OC [Example 379, 3-Phenylpropyl N-{2-chloro-4-[(6,7-dimethoxy-4-quinazolinyl)oxy]phenyl}carbamate]
IC50 (PDGF-Ra; Pharmacological Test Example 1): 11 nM
IC50 (c-kit; h-SCF 50 ng/ml): 624 nM

C=CCOC(=O)Nc1ccc(Oc2ncnc3cc(OC)c(OC)cc23)cc1 [Example 375, Allyl N-{4-[(6,7-dimethoxy-4-quinazolinyl)oxy]phenyl}carbamate]
IC50 (PDGF-Ra; Pharmacological Test Example 1): 74 nM
IC50 (c-kit; h-SCF 50 ng/ml): 144 nM

CCCCc1ccc(OC(=O)Nc2ccc(Oc3ccnc4cc(OC)c(OC)cc34)cc2)cc1 [Example 257, 4-Butylphenyl N-{4-[(6,7-dimethoxy-4-quinolyl)oxy]phenyl}carbamate]
IC50 (PDGF-Ra; Pharmacological Test Example 1): 6 nM
IC50 (c-kit; h-SCF 50 ng/ml): 22 nM

COc1cc2nccc(Oc3cc(C)c(NC(=O)Oc4ccc(-c5ccccc5)cc4)cc3C)c2cc1OC [Example 295, 4-Phenylphenyl N-{4-[(6,7-dimethoxy-4-quinolyl)oxy]-2,5-dimethylphenyl}carbamate]
inhibition at 0.1 µM (PDGF-Ra; [3]): 45%
IC50 (PDGF-Ra; Pharmacological Test Example 1): > 100 nM
IC50 (c-kit; h-SCF 50 ng/ml): 178 nM

COc1cc2nccc(Oc3ccc(NC(=O)OC(C)c4ccc(F)cc4)c(C)c3C)c2cc1OC (stereo not drawn) [Example 103, 1-(4-Fluorophenyl)ethyl N-{4-[(6,7-dimethoxy-4-quinolyl)oxy]-2,3-dimethylphenyl}carbamate]
IC50 (PDGF-Ra; Pharmacological Test Example 1): 15 nM
IC50 (c-kit; h-SCF 50 ng/ml): 200 nM

COc1cc2ncnc(Oc3ccc(NC(=O)OCc4ccccc4C)c([N+](=O)[O-])c3)c2cc1OC [Example 505, 2-Methylbenzyl N-{4-[(6,7-dimethoxy-4-quinazolinyl)oxy]-2-nitrophenyl}carbamate]
IC50 (PDGF-Ra): 53 nM
inhibition at 1 µM (c-kit; [1]): 25%

CCCCC(C)C(=O)NC(=S)Nc1ccc(Oc2ccnc3cc(OC)c(OC)cc23)c(Cl)c1 (stereo not drawn) [Example 1077, N-{3-Chloro-4-[(6,7-dimethoxy-4-quinolyl)oxy]phenyl}-N′-(2-methylhexanoyl)thiourea]
IC50 (PDGF-Ra): 48 nM
IC50 (c-kit; h-SCF stimulation): 379 nM

COc1cc2nccc(Oc3ccc(NCCCOc4ccccc4)cc3)c2cc1OC [Example 885, N-{4-[(6,7-Dimethoxy-4-quinolyl)oxy]phenyl}-N-(3-phenoxypropyl)amine]
IC50 (PDGF-Ra): < 3 nM
IC50 (c-kit; h-SCF stimulation): 420 nM

COc1cc2nccc(Oc3ccc(NC(=O)OCC4CCCC4)cc3)c2cc1OC [Example 394, Cyclopentylmethyl N-{4-[(6,7-dimethoxy-4-quinolyl)oxy]phenyl}carbamate]
IC50 (PDGF-Ra; Pharmacological Test Example 1): < 10 nM
IC50 (c-kit; h-SCF 50 ng/ml): 133 nM

COc1cc2ncnc(Oc3ccc(NC(=O)OCCSc4ccc(C)cc4)cc3)c2cc1OC [Example 140]
IC50 (PDGF-Ra; Pharmacological Test Example 1): < 10 nM
IC50 (c-kit; h-SCF 50 ng/ml): 234 nM

COc1cc2nccc(Oc3ccc(NC(=S)NC(=O)c4cc(C)ccc4C)cc3)c2cc1OC [Example 1004, N-{4-[(6,7-Dimethoxy-4-quinolyl)oxy]phenyl}-N′-(2,5-dimethylbenzoyl)thiourea]
IC50 (PDGF-Ra): 10 nM
IC50 (c-kit; h-SCF stimulation): 877 nM

COc1cc2nccc(Oc3ccc(NC(=S)NC(=O)C(C)Oc4ccccc4Cl)cc3Cl)c2cc1OC (stereo not drawn) [Example 764, N-{3-Chloro-4-[(6,7-dimethoxy-4-quinolyl)oxy]phenyl}-N′-[2-(2-chlorophenoxy)propanoyl]thiourea]
IC50 (PDGF-Ra): 14 nM
inhibition at 1 µM (c-kit; [1]): 19%

COc1cccc(COC(=O)Nc2ccc(Oc3ccnc4cc(OC)c(OC)cc34)c(C)c2C)c1 [Example 238, 3-Methoxybenzyl N-{4-[(6,7-dimethoxy-4-quinolyl)oxy]-2,3-dimethylphenyl}carbamate]
IC50 (PDGF-Ra; Pharmacological Test Example 1): 10 nM
IC50 (c-kit; h-SCF 50 ng/ml): 36 nM

COc1cc2nccc(Oc3cc(C)c(NC(=O)OCCCSc4ccc(C)cc4)cc3C)c2cc1OC [Example 39, 3-[(4-Methylphenyl)sulfanyl)propyl N-{4-[(6,7-dimethoxy-4-quinolyl)oxy]-2,5-dimethylphenyl}-carbamate]
IC50 (PDGF-Ra; Pharmacological Test Example 1): < 10 nM
IC50 (c-kit; h-SCF 50 ng/ml): 56 nM

CCCCN(CCCC)CCNC(=O)Nc1ccc(Oc2ccnc3cc(OC)c(OC)cc23)cc1 [Example 682, N-[2-(Dibutylamino)ethyl]-N′-{4-[(6,7-dimethoxy-4-quinolyl)oxy]phenyl}urea]
IC50 (PDGF-Ra): > 100 nM
inhibition at 0.1 µM (PDGF-Ra; [2]): 30%
inhibition at 1 µM (c-kit; [1]): 32%

COc1cc2nccc(Oc3cc(C)c(NC(=O)OCCc4cccc(C(F)(F)F)c4)cc3C)c2cc1OC [Example 84, 3-(Trifluoromethyl)phenethyl N-{4-[(6,7-dimethoxy-4-quinolyl)oxy]-2,5-dimethylphenyl}carbamate]
IC50 (PDGF-Ra; Pharmacological Test Example 1): 27 nM
IC50 (c-kit; h-SCF 50 ng/ml): 399 nM

COc1cc2ncnc(Oc3ccc(NC(=O)N[C@H]4CCN(Cc5ccccc5)C4)c([N+](=O)[O-])c3)c2cc1OC [Example 578, N-[(3S)-1-Benzyltetrahydro-1H-3-pyrrolyl]-N′-{4-[(6,7-dimethoxy-4-quinazolinyl)oxy]-2-nitrophenyl}urea]
IC50 (PDGF-Ra): 18 nM
IC50 (c-kit; 50 ng/ml h-SCF): 104 nM

COc1cc2nccc(Oc3ccc(NC(=S)NCCCn4ccnc4)c(C)c3C)c2cc1OC [Example 543]
IC50 (PDGF-Ra): 54 nM
IC50 (c-kit; 50 ng/ml h-SCF): 328 nM
